Data published in patent US6610750B1, “Treatment of osteoarthritis” (Laboratoires Negma, priority 2000, dated 2003).

Experiments:
[1] = tested on: IL-1 and other cytokines (IL-6 and TNF); settings: several studies in vitro and with animal models of osteoarthritis; cited from earlier work
[2] = tested on: patients with severe to moderate hip osteoarthritis; experiment: three-year, randomized, double-blind, placebo-controlled study of radiological progression of hip osteoarthritis; type: in vivo, human
From the text: In order to further explore the potential usefulness of diacerein in the treatment of osteoarthritis, and to closely monitor the relevance of the effects of the treatment by using an accurate radiographic technique, the inventors carried out a 3-year, randomized, double-blind and placebo-controlled multicenter clinical trial in 507 patients with hip osteoarthritis. The unexpected result of the study was that diacerein has a beneficial effect as a structure-modifying treatment for osteoarthritis, as evidenced radiographically by a reduction of the destructive progression of hip osteoarthritis. The results of this study are reported in Dougados M., Nguyen M., Berdah L., Lequesne M., Mazières B., Vignon E. 1999; “Evaluation of the structural (radiological) effect of diacerein in osteoarthritis of the hip: a 3-year placebo controlled study”, Osteoarthritis and Cart 7, Suppl. A: 123, and are by reference thereto incorporated herein in their entirety.
In a three-year, randomized, double-blind, placebo-controlled study, 507 patients with severe to moderate hip osteoarthritis were assigned to receive either diacerein, 50 mg twice daily, or an identical placebo. The primary criterion of radiological progression of osteoarthritis was defined by a reduction in the joint space width or at least 0.5 mm during the study. The annual joint space narrowing rate (mm/year) was also determined in the patients who completed the treatment.
A total of 482 patients who had at least two radiographs were evaluated. Baseline characteristics of the 241 patients in each group were similar. In the placebo group, 62.7% of the patients had radiological progression, compared to 53.9% in the diacerein group (log-rank test: p=0.037). Treatment was followed for three years by 269 patients, among whom 55.1% in the placebo group and 41.2% in the diacerein group had radiological progression (log-rank test: p=0.007).

solubility of diacerein = type: physicochemical
[3] = tested on: prostaglandin biosynthesis; settings: cited from earlier work
osteoarthritis = settings: after the start of the treatment; cited from earlier work

solubility in alcohol (solubility of diacerein; alcohol): virtually insoluble
solubility in water (solubility of diacerein; water): virtually insoluble
SMILES: CC(=O)Oc1cccc2c1C(=O)c1c(OC(C)=O)cc(C(=O)O)cc1C2=O [diacerein, diacetylrhein]
inhibition of IL-1 and other cytokines (IL-6 and TNF) [1]: inhibit
annual joint space narrowing rate ([2]; 269 patients who completed three years, diacerein 50 mg twice daily, placebo 0.23±0.23, p=0.042): 0.18±0.25 mm/year
patients with radiological progression (reduction in joint space width of at least 0.5 mm) ([2]; 269 patients who followed treatment for three years, diacerein 50 mg twice daily, placebo 55.1%, log-rank p=0.007): 41.2%
patients with radiological progression (reduction in joint space width of at least 0.5 mm) ([2]; 482 patients with at least two radiographs, 241 per group, diacerein 50 mg twice daily, placebo 62.7%, log-rank p=0.037): 53.9%
structure-modifying effect as compared to placebo ([2]; over the three-year period): statistically significant structure-modifying effect
inhibitory effect on the phospholiphase, cyclo-oxygenase or lipo-oxygenase pathways (prostaglandin biosynthesis) [3]: no inhibitory effect
time of onset of the effect (osteoarthritis): ≥ 4 weeks
